Tests used:
Conditions in all cases: Compound concentration 10 µM
[1] = target: T1, Muscarinic acetylcholine receptor M2 (Homo sapiens) (UniProt P08172)
T1 sequence (whole entry): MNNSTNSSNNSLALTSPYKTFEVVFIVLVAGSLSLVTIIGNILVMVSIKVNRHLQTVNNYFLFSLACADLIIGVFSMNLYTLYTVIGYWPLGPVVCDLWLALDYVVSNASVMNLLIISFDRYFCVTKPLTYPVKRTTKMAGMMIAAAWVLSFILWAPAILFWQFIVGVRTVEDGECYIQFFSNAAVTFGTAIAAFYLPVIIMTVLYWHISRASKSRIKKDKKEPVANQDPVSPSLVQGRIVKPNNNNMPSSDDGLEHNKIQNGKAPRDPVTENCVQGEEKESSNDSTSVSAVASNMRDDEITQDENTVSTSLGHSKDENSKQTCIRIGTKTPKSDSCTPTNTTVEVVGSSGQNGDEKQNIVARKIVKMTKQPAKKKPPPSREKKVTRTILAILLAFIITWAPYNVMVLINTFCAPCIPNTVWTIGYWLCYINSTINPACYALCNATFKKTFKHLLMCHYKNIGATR
Description: PDSP Primary Binding target: CHRM2 - Compounds are tested at 10 uM concentration, plate are incubated at room temperature in the dark for 90 minutes. Reaction are stopped by vacuum filtration onto 0.3% polyethyleneimine soaked filter mats using Filtermate harvester. Scintilation cocktail is then melted onto microwave-dried filters on a hot plate and the radio activity is counted in Microbia counter.

[2] = target: T2, Muscarinic acetylcholine receptor M5 (Homo sapiens) (UniProt P08912)
T2 sequence (whole entry): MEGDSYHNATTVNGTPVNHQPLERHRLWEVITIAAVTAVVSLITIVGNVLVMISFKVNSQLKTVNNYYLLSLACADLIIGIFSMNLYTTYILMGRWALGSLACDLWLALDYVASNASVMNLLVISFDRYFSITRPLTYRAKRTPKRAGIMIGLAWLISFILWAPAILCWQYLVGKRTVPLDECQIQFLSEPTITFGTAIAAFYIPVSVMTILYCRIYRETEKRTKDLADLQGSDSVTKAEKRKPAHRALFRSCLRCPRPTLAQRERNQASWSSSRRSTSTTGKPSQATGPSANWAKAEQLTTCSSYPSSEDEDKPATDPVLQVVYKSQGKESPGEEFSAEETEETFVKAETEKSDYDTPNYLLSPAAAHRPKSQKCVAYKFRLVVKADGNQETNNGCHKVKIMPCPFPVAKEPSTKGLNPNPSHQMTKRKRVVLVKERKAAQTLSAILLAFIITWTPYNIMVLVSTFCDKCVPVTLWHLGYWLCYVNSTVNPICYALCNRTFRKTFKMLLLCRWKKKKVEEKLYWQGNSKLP
Description: PDSP Primary Binding target: CHRM5 - Compounds are tested at 10 uM concentration, plate are incubated at room temperature in the dark for 90 minutes. Reaction are stopped by vacuum filtration onto 0.3% polyethyleneimine soaked filter mats using Filtermate harvester. Scintilation cocktail is then melted onto microwave-dried filters on a hot plate and the radio activity is counted in Microbia counter.

[3] = target: D(3) dopamine receptor (Homo sapiens) (UniProt P35462)
Chain of D(3) dopamine receptor (Homo sapiens) (P35462 whole entry): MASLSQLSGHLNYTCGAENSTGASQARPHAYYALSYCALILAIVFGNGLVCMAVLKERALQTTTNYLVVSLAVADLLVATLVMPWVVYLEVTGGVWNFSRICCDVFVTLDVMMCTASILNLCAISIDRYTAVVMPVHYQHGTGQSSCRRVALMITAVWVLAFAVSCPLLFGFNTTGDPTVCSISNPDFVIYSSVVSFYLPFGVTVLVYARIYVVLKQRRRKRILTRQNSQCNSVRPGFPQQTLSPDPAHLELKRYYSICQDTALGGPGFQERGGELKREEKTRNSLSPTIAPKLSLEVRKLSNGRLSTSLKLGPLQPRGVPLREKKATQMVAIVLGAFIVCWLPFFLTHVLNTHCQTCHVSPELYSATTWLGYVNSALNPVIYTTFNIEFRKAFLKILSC
Description: PDSP Primary Binding target: DRD3 - Compounds are tested at 10 uM concentration, plate are incubated at room temperature in the dark for 90 minutes. Reaction are stopped by vacuum filtration onto 0.3% polyethyleneimine soaked filter mats using Filtermate harvester. Scintilation cocktail is then melted onto microwave-dried filters on a hot plate and the radio activity is counted in Microbia counter.

[4] = target: 5-hydroxytryptamine receptor 2A (Homo sapiens) (UniProt P28223)
Chain of 5-hydroxytryptamine receptor 2A (Homo sapiens) (P28223 whole entry): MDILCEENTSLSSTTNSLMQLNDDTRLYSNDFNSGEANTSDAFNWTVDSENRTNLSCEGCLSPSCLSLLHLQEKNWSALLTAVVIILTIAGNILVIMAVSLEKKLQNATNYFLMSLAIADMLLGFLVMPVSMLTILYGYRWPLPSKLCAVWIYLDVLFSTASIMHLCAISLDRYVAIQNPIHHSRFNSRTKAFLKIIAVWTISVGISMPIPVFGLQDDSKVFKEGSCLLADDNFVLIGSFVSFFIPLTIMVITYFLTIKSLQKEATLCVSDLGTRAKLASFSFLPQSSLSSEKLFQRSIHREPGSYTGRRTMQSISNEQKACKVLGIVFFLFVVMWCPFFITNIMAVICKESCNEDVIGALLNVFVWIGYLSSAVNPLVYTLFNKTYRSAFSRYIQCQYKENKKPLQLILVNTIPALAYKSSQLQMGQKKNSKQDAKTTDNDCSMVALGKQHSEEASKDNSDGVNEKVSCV
Description: PDSP Primary Binding target: HTR2A - Compounds are tested at 10 uM concentration, plate are incubated at room temperature in the dark for 90 minutes. Reaction are stopped by vacuum filtration onto 0.3% polyethyleneimine soaked filter mats using Filtermate harvester. Scintilation cocktail is then melted onto microwave-dried filters on a hot plate and the radio activity is counted in Microbia counter.

[5] = target: T3, 5-hydroxytryptamine receptor 3A (Homo sapiens) (UniProt P46098)
T3 sequence (whole entry): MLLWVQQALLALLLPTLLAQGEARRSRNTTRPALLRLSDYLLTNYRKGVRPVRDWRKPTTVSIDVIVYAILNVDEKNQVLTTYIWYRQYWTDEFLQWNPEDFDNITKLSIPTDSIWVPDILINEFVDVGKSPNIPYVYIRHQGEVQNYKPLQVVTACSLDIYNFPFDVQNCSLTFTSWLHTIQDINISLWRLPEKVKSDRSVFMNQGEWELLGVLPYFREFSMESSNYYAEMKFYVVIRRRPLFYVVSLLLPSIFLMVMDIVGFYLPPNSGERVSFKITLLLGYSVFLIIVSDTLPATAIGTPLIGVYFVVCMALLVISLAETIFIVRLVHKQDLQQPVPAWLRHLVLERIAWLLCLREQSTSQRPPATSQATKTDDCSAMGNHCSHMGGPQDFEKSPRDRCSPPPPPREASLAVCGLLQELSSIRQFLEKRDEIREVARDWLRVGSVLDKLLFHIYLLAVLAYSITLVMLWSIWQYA
Description: PDSP Primary Binding target: HTR3A - Compounds are tested at 10 uM concentration, plate are incubated at room temperature in the dark for 90 minutes. Reaction are stopped by vacuum filtration onto 0.3% polyethyleneimine soaked filter mats using Filtermate harvester. Scintilation cocktail is then melted onto microwave-dried filters on a hot plate and the radio activity is counted in Microbia counter.

[6] = target: Sigma non-opioid intracellular receptor 1 (Homo sapiens) (UniProt Q99720)
Chain of Sigma non-opioid intracellular receptor 1 (Homo sapiens) (Q99720 whole entry): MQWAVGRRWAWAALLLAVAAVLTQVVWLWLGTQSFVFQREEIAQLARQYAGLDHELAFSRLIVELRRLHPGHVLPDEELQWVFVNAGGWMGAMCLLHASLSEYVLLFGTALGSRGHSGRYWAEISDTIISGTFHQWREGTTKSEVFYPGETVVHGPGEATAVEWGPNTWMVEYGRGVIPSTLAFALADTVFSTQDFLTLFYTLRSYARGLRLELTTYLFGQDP
Description: PDSP Primary Binding target: SIGMAR1 - Compounds are tested at 10 uM concentration, plate are incubated at room temperature in the dark for 90 minutes. Reaction are stopped by vacuum filtration onto 0.3% polyethyleneimine soaked filter mats using Filtermate harvester. Scintilation cocktail is then melted onto microwave-dried filters on a hot plate and the radio activity is counted in Microbia counter.

[7] = target: T4, 5-hydroxytryptamine receptor 2C (Homo sapiens) (UniProt P28335)
T4 sequence (whole entry): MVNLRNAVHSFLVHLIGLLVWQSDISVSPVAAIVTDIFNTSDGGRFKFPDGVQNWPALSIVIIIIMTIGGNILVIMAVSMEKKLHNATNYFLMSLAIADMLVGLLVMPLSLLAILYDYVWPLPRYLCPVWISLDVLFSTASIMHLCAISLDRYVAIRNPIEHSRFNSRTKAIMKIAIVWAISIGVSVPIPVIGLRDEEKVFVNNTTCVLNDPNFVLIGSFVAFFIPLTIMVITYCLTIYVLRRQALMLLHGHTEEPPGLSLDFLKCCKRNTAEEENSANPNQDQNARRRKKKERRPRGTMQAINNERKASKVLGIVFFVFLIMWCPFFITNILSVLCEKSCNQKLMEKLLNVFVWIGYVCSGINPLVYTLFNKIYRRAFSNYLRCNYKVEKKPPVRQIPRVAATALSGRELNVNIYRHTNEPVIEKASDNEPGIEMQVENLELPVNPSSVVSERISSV
Description: PDSP Primary Binding target: HTR2C - Compounds are tested at 10 uM concentration, plate are incubated at room temperature in the dark for 90 minutes. Reaction are stopped by vacuum filtration onto 0.3% polyethyleneimine soaked filter mats using Filtermate harvester. Scintilation cocktail is then melted onto microwave-dried filters on a hot plate and the radio activity is counted in Microbia counter.

[8] = target: 5-hydroxytryptamine receptor 7 (Homo sapiens) (UniProt P34969)
Chain of 5-hydroxytryptamine receptor 7 (Homo sapiens) (P34969 whole entry): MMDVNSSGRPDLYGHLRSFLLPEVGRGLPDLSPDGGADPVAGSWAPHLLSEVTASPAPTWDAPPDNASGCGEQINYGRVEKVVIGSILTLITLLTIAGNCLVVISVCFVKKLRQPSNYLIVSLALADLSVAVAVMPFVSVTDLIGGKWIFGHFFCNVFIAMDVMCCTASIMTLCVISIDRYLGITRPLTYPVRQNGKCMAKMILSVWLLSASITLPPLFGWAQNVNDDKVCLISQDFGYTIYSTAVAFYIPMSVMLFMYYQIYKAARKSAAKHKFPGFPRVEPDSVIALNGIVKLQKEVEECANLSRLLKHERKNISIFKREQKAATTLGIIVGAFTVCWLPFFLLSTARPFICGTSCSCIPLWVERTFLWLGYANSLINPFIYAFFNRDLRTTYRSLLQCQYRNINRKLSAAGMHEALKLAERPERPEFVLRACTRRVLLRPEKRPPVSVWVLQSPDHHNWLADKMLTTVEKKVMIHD
Description: PDSP Primary Binding target: HTR7 - Compounds are tested at 10 uM concentration, plate are incubated at room temperature in the dark for 90 minutes. Reaction are stopped by vacuum filtration onto 0.3% polyethyleneimine soaked filter mats using Filtermate harvester. Scintilation cocktail is then melted onto microwave-dried filters on a hot plate and the radio activity is counted in Microbia counter.

[9] = target: Sodium-dependent noradrenaline transporter (Homo sapiens) (UniProt P23975)
Chain of Sodium-dependent noradrenaline transporter (Homo sapiens) (P23975 whole entry): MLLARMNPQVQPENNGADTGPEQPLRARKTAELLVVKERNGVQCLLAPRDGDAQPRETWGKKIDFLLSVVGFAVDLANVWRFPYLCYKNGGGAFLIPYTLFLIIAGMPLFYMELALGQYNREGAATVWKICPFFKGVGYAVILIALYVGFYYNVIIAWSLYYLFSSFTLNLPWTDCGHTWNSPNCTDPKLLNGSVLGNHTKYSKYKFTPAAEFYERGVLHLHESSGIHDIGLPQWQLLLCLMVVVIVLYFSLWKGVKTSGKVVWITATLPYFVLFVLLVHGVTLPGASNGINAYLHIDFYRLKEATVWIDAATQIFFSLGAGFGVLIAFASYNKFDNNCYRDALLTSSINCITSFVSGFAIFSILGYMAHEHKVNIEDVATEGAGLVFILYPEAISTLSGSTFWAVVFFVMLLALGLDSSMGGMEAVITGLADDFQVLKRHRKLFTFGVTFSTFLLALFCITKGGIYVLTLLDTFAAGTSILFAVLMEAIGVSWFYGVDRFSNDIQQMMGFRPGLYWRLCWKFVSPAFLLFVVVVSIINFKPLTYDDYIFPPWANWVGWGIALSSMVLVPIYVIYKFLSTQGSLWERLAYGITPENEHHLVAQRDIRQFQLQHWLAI
Description: PDSP Primary Binding target: SLC6A2 - Compounds are tested at 10 uM concentration, plate are incubated at room temperature in the dark for 90 minutes. Reaction are stopped by vacuum filtration onto 0.3% polyethyleneimine soaked filter mats using Filtermate harvester. Scintilation cocktail is then melted onto microwave-dried filters on a hot plate and the radio activity is counted in Microbia counter.

[10] = target: Delta-type opioid receptor (Homo sapiens) (UniProt P41143)
Chain of Delta-type opioid receptor (Homo sapiens) (P41143 whole entry): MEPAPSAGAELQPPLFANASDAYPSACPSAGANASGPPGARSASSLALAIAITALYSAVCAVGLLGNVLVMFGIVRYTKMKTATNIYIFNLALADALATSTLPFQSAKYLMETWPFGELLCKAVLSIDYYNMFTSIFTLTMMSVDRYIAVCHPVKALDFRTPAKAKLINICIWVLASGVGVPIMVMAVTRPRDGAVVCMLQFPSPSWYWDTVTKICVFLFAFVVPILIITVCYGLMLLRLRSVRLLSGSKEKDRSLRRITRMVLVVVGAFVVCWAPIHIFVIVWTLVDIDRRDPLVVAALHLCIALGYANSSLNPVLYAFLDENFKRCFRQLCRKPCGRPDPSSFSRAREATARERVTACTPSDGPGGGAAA
Description: PDSP Primary Binding target: OPRD1 - Compounds are tested at 10 uM concentration, plate are incubated at room temperature in the dark for 90 minutes. Reaction are stopped by vacuum filtration onto 0.3% polyethyleneimine soaked filter mats using Filtermate harvester. Scintilation cocktail is then melted onto microwave-dried filters on a hot plate and the radio activity is counted in Microbia counter.

[11] = target: T5, Alpha-1B adrenergic receptor (Homo sapiens) (UniProt P35368)
T5 sequence (whole entry): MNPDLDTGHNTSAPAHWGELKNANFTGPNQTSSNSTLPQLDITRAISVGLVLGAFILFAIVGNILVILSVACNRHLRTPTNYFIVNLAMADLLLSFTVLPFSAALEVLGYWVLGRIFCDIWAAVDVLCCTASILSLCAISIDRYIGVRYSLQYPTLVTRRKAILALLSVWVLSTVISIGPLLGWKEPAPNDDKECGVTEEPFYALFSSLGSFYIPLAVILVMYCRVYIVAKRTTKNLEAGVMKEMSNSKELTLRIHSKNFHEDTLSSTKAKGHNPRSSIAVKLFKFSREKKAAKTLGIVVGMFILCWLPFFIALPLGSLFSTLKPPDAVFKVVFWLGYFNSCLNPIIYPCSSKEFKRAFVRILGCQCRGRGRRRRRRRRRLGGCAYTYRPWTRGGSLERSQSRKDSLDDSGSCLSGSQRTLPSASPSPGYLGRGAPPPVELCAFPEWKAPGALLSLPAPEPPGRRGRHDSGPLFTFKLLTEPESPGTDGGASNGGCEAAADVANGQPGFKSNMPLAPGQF
Description: PDSP Primary Binding target: ADRA1B - Compounds are tested at 10 uM concentration, plate are incubated at room temperature in the dark for 90 minutes. Reaction are stopped by vacuum filtration onto 0.3% polyethyleneimine soaked filter mats using Filtermate harvester. Scintilation cocktail is then melted onto microwave-dried filters on a hot plate and the radio activity is counted in Microbia counter.

[12] = target: Muscarinic acetylcholine receptor M3 (Homo sapiens) (UniProt P20309)
Chain of Muscarinic acetylcholine receptor M3 (Homo sapiens) (P20309 whole entry, looked up): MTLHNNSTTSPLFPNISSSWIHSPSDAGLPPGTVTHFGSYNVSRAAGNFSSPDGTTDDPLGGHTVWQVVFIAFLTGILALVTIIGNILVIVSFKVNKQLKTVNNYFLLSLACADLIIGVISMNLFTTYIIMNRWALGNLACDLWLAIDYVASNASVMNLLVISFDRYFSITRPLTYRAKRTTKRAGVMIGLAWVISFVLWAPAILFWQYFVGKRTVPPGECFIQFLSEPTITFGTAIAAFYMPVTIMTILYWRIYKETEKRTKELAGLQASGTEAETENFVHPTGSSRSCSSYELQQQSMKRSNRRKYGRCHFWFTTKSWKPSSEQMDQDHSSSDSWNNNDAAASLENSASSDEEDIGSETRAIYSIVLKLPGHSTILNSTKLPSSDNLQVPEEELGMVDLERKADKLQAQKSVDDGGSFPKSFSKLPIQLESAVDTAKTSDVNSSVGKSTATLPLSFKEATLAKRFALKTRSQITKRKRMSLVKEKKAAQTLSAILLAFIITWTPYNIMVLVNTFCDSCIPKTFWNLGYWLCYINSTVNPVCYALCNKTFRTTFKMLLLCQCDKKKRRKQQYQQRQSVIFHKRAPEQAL
Description: PDSP Primary Binding target: CHRM3 - Compounds are tested at 10 uM concentration, plate are incubated at room temperature in the dark for 90 minutes. Reaction are stopped by vacuum filtration onto 0.3% polyethyleneimine soaked filter mats using Filtermate harvester. Scintilation cocktail is then melted onto microwave-dried filters on a hot plate and the radio activity is counted in Microbia counter.

In the case of `O=C(Nc1ccc(Cl)cc1)Nc1cccc(-c2cccc(N3CCCC3)n2)c1`, the inhibition [1] is reported as 12.7%, the inhibition [2] is reported as -5.29% and the inhibition [3] is reported as 48.5%. For the same molecule, the inhibition [4] was 11%, the inhibition [5] was -5.81% and the inhibition [6] was 47.3%.
`C/C(=N\NC(=O)[C@@H]1C(=O)NC[C@H]1c1ccccc1)c1cccc(Br)c1` was tested, and the inhibition [4] was 62.6%, the inhibition [7] was 33.4% and the inhibition [5] was -4.26%. For the same molecule, the inhibition [8] was 8.23%, the inhibition [6] was 21.3% and the inhibition [9] was 11.2%.
`COc1cc2c(CCNC(C)=O)c[nH]c2cc1Cl` was tested, and the inhibition [4] was -6.6%, the inhibition [7] was 18.8% and the inhibition [8] was -0.31%. For the same molecule, the inhibition [10] was -3.58% and the inhibition [6] was 5.27%.
`CCc1cc2c(c(CC)n1)CCC(=O)N2Cc1ccc(-c2ccccc2-c2nnn[nH]2)cc1` gave an inhibition [11] of 25.9%, an inhibition [2] of -1.14% and an inhibition [3] of 87.1%. The inhibition [4] was 29.2%, the inhibition [5] was 8.33% and the inhibition [6] was 24.9%.
`O=C(Cc1ccccc1)Nc1nc2ccc(Cl)cc2c2nc(-c3ccco3)nn12` was tested, and the inhibition [11] was -7.34%, the inhibition [1] was -4.43% and the inhibition [2] was -3.93%. The inhibition [3] was 30.2%, the inhibition [4] was 16.8% and the inhibition [7] was -5.69%. For the same molecule, the inhibition [6] was -4.19% and the inhibition [9] was -6.09%.
`CN(C)C(=O)C(CCN1CCC(O)(c2ccc(Cl)cc2)CC1)(c1ccccc1)c1ccccc1` gave an inhibition [11] of 52.4%, an inhibition [2] of 2.95% and an inhibition [3] of 42.1%. It also gave an inhibition [7] of 0.09%, an inhibition [8] of 20.8% and an inhibition [10] of 91.5%. It also gave an inhibition [6] of 87.2% and an inhibition [9] of 25.8%.
`Cc1cccc(NC(=O)N[C@@H]2N=C(c3ccccc3)c3ccccc3N(C)C2=O)c1` was tested, and the inhibition [3] was 0.6%, the inhibition [4] was 53.4% and the inhibition [7] was -0.72%. For the same molecule, the inhibition [5] was -5.37%, the inhibition [8] was 3.26% and the inhibition [10] was 8.95%. It also gave an inhibition [6] of 20.8% and an inhibition [9] of 1.83%.
`N#Cc1c(N)nc(SCC(N)=O)c(C#N)c1-c1ccc(OCC2CC2)cc1` gave an inhibition [11] of -6.52%, an inhibition [1] of -6.03% and an inhibition [2] of 10.4%. For the same molecule, the inhibition [3] was -6.34%, the inhibition [4] was 28.7% and the inhibition [10] was -1.99%. The inhibition [6] was 62%.
Molecule `Cc1cc(C)cc(C(=O)N(C)[C@H](Cc2ccc(-c3ccccc3)cc2)C(=O)N[C@@H](Cc2c[nH]c3ccccc23)C(=O)O)c1` has an inhibition [11] of 1.27%, an inhibition [12] of 0.07% and an inhibition [3] of 3.03%. For the same molecule, the inhibition [4] was 31.2% and the inhibition [6] was -6.1%.
`CN(C(=O)Cc1ccc(Cl)c(Cl)c1)C(CN1CCCC1)c1cccc(OCC(=O)O)c1` (configuration not stated) showed an inhibition [12] of 9.38%, an inhibition [2] of 59.6% and an inhibition [3] of 3.88%. For the same molecule, the inhibition [4] was 42.8%, the inhibition [5] was 7.24% and the inhibition [8] was -9.81%. It also gave an inhibition [10] of 71.9% and an inhibition [6] of 24.1%.
For `Cc1cc(NC(=O)Nc2ccc(N(C)C)cc2)c2cc(F)cc(F)c2n1`, the inhibition [11] was 14%, the inhibition [1] was 52.8% and the inhibition [2] was 39.2%. For the same molecule, the inhibition [3] was 34.5%, the inhibition [4] was 13% and the inhibition [7] was 20.1%. It also gave an inhibition [5] of 7.73%, an inhibition [6] of 96% and an inhibition [9] of 35.9%.
`CCc1cc(C(C)=O)c(O)cc1OCCCCCC(C)(C)c1nn[nH]n1` showed an inhibition [11] of -3.95%, an inhibition [12] of 8.78% and an inhibition [2] of 47.9%. For the same molecule, the inhibition [3] was 46.8%, the inhibition [4] was 12.7% and the inhibition [7] was 0.93%. For the same molecule, the inhibition [5] was -9.38% and the inhibition [6] was 61.4%.
`COc1ccc(C2(O)OC(=O)C(c3ccc4c(c3)OCO4)=C2Cc2cc(OC)c(OC)c(OC)c2)cc1` (configuration not stated) showed an inhibition [11] of -4.11%, an inhibition [12] of 6.22% and an inhibition [2] of 28.8%. It also gave an inhibition [3] of -2.35%, an inhibition [4] of 12.4% and an inhibition [8] of 12%. For the same molecule, the inhibition [6] was 6.35%.
In the case of `CC(C)(C)NC[C@H](O)COc1nsnc1N1CCOCC1`, the inhibition [11] is reported as -6.31%, the inhibition [2] is reported as 2.12% and the inhibition [3] is reported as -0.36%. The inhibition [7] was -1.62% and the inhibition [6] was 90.3%.
`CCCn1c(=O)c2[nH]c(-c3cnn(Cc4cccc(C(F)(F)F)c4)c3)nc2n(CC)c1=O` was tested, and the inhibition [11] was -5.87%, the inhibition [12] was 3.75% and the inhibition [2] was -2.1%. For the same molecule, the inhibition [5] was -4.02%, the inhibition [10] was -6.13% and the inhibition [6] was 43.2%. The inhibition [9] was 25.1%.
Work on `CC(C)NCC(O)c1ccc(N)c(C#N)c1` (configuration not stated) yielded an inhibition [11] of -5.56%, an inhibition [12] of -7.31% and an inhibition [2] of -0.9%. For the same molecule, the inhibition [3] was -2.07%, the inhibition [4] was 9.46% and the inhibition [7] was -7.04%. It also gave an inhibition [8] of 20.1%, an inhibition [6] of 22.7% and an inhibition [9] of 4.01%.
With `COc1ccccc1CN[C@H]1C2CCN(CC2)[C@H]1C(c1ccccc1)c1ccccc1` the inhibition [11] was 1.04%, the inhibition [12] was 13.3% and the inhibition [2] was 56.2%. It also gave an inhibition [3] of 43%, an inhibition [4] of 13.4% and an inhibition [7] of -3.39%. The inhibition [5] was 13.6%, the inhibition [8] was -6.37% and the inhibition [6] was 48.5%.
`CC(C)C[C@H](NC(=O)N1CCCCCC1)C(=O)N[C@H](Cc1cn(C)c2ccccc12)C(=O)N[C@H](Cc1ccccn1)C(=O)O` was tested, and the inhibition [11] was 10.1%, the inhibition [3] was 22.6% and the inhibition [4] was -0.06%. The inhibition [5] was -9.08% and the inhibition [6] was 4.12%.
With `CC(C)NCC(O)COc1cccc2ccccc12` (configuration not stated) the inhibition [2] was 6.07%, the inhibition [3] was 23.3% and the inhibition [7] was 68%. For the same molecule, the inhibition [5] was 8.73%, the inhibition [8] was 13.3% and the inhibition [10] was 7.31%. The inhibition [6] was 54.7% and the inhibition [9] was 46.2%.
In the case of `Nc1nc2c(c(N3CCNCC3)n1)CCC1=C2[C@@H]2CCCC[C@@H]2O1`, the inhibition [11] is reported as -8.32%, the inhibition [12] is reported as 15.3% and the inhibition [2] is reported as -3.04%. For the same molecule, the inhibition [4] was 50.6%, the inhibition [7] was 7.29% and the inhibition [5] was 98.1%. The inhibition [8] was 17.8% and the inhibition [6] was 86.4%.
With `N=C(N)SCCc1c[nH]cn1` the inhibition [11] was -9.87%, the inhibition [12] was -9.79% and the inhibition [3] was -0.38%. For the same molecule, the inhibition [4] was -6.33%, the inhibition [7] was -2.06% and the inhibition [5] was 45.7%. The inhibition [8] was 19.2%, the inhibition [10] was -6.86% and the inhibition [6] was 13.1%. It also gave an inhibition [9] of 11.5%.

Source: ChEMBL document CHEMBL5442219
